# Measurements published in patent US20240228488A1 (TAKEDA PHARMACEUTICAL COMPANY LIMITED, priority 2021, published 2024).
# Biological target: human activated kallikrein enzyme (Homo sapiens, UniProt P03952)
# Assay: Plasma kallikrein inhibition, fluorogenic PFR-AMC substrate, 500 pM activated kallikrein format
# Format: biochemical
# Conditions: 500 pM activated kallikrein, 300 uM PFR-AMC, 30 min preincubation, 10 min reaction; read-out: Primary Dose Response Assay: Average EC50
# Procedure, shortened: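 Enzyme at 500 pM preincubated 30 min RT with inhibitors in 20 mM Tris pH 7.5, 1 mM EDTA, 150 mM NaCl, 0.1% PEG-400, 0.1% Triton X-100. Reaction started with 300 uM PFR-AMC, run 10 min RT; fluorescence read at 460 nm emission, 380 nm excitation. EC50 reported in ranges.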
# Sequence of human activated kallikrein enzyme (P03952 391-638 limits assumed): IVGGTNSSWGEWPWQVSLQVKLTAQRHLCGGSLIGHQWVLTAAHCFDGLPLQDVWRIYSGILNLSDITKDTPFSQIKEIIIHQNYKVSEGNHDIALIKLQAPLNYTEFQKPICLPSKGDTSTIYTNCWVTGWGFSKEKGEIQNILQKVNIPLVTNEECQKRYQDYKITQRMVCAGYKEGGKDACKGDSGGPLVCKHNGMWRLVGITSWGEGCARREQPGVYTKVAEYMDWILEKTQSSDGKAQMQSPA
# Sequence of human activated kallikrein enzyme (P03952 20-390 partner limits assumed): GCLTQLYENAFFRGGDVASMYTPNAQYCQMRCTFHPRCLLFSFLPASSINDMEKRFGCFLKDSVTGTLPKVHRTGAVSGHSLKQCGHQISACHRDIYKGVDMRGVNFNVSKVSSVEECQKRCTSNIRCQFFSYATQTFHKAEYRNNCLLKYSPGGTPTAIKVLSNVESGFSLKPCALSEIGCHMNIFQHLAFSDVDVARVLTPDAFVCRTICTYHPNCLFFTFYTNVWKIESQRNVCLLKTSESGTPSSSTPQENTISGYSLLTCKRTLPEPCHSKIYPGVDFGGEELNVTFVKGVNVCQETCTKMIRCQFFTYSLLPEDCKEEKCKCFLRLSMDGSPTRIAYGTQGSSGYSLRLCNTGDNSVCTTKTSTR
row,SMILES,EC50
1,"Cc1ccnc([C@H]2C[C@@H]2C(=O)Nc2cc(N[C@H](C)c3cn4cc(C5CC5)cc(N5CCN(C)C5=O)c4n3)ncn2)n1 [Example 536, (1S,2S)-N-(6-(((R)-1-(6-cyclopropyl-8-(3-methyl-2-oxoimidazolidin-1-yl)imidazo[1,2-a]pyridin-2-yl)ethyl)amino)pyrimidin-4-yl)-2-(4-methylpyrimidin-2-yl)cyclopropane-1-carboxamide]",< 1 nM
2,"CNc1nnc(NC(=O)[C@H]2C[C@@H]2c2nccc(C)n2)cc1OCc1cn2cc(C3CC3)cc(N3CC(=O)N(C)C3=O)c2n1 [Example 670, (1S,2S)—N-(5-((6-cyclopropyl-8-(3-methyl-2,4-dioxoimidazolidin-1-yl)imidazo[1,2-a]pyridin-2-yl)methoxy)-6-(methylamino)pyridazin-3-yl)-2-(4-methylpyrimidin-2-yl)cyclopropane-1-carboxamide]",< 1 nM
3,"Cc1ccnc([C@H]2C[C@@H]2C(=O)Nc2cc(C(O)Cc3cn4cc(C5CC5)cc(N5CC(=O)N(C)C5=O)c4n3)nc(C)n2)n1 (stereo partly drawn) [Example 674, (1S,2S)—N-(6-(2-(6-cyclopropyl-8-(3-methyl-2,4-dioxoimidazolidin-1-yl)imidazo[1,2-a]pyridin-2-yl)-1-hydroxyethyl)-2-methylpyrimidin-4-yl)-2-(4-methylpyrimidin-2-yl)cyclopropane-1-carboxamide]",10 to 100 nM
4,"Cc1ccnc([C@H]2C[C@@H]2C(=O)Nc2cc(OC(C)c3cn4cc(C5CC5)cc(N5CC(=O)N(C)C5=O)c4n3)c(C)nn2)n1 (stereo partly drawn) [Example 35, (1S,2S)-N-(5-(1-(6-cyclopropyl-8-(3-methyl-2,4-dioxoimidazolidin-1-yl)imidazo[1,2-α]pyridin-2-yl)ethoxy)-6-methylpyridazin-3-yl)-2-(4-methylpyrimidin-2-yl)cyclopropane-1-carboxamide]",< 1 nM
5,"Cc1ccnc([C@H]2C[C@@H]2C(=O)Nc2cc(O)cc(OCc3cn4cc(C5CC5)cc(N5CC(=O)N(C)C5=O)c4n3)n2)n1 [Example 661, (1S,2S)—N-(6-((6-cyclopropyl-8-(3-methyl-2,4-dioxoimidazolidin-1-yl)imidazo[1,2-a]pyridin-2-yl)methoxy)-4-hydroxypyridin-2-yl)-2-(4-methylpyrimidin-2-yl)cyclopropane-1-carboxamide]",1 to 10 nM
6,"COc1cc(NCc2cn3cc(C4CC4)ccc3n2)cc(NC(=O)[C@H]2C[C@@H]2c2cc(Cl)ccn2)n1 [Example 339, (1S,2S)-2-(4-chloropyridin-2-yl)-N-(4-(((6-cyclopropylimidazo[1,2-a]pyridin-2-yl)methyl)amino)-6-methoxypyridin-2-yl)cyclopropane-1-carboxamide]",1 to 10 nM
7,"Cc1ccnc([C@H]2C[C@@H]2C(=O)Nc2cc(N(CC(=O)O)Cc3cn4cc(C5CC5)cc(N5CC(=O)N(C)C5=O)c4n3)ncn2)n1 [Example 461, N-((6-cyclopropyl-8-(3-methyl-2,4-dioxoimidazolidin-1-yl)imidazo[1,2-a]pyridin-2-yl)methyl)-N-(6-((1S,2S)-2-(4-methylpyrimidin-2-yl)cyclopropane-1-carboxamido)pyrimidin-4-yl)glycine]",1 to 10 nM
8,"Cc1ccnc([C@H]2C[C@@H]2C(=O)Nc2cc(F)c(Cl)c(NCc3cn4cc(C5CC5)cc(N5CC(=O)N(C)C5=O)c4n3)c2)n1 [Example 658, (1S,2S)—N-(4-chloro-3-(((6-cyclopropyl-8-(3-methyl-2,4-dioxoimidazolidin-1-yl)imidazo[1,2-a]pyridin-2-yl)methyl)amino)-5-fluorophenyl)-2-(4-methylpyrimidin-2-yl)cyclopropane-1-carboxamide]",< 1 nM
9,"N#Cc1cc(Cl)sc1[C@H]1C[C@@H]1C(=O)Nc1cc(NCc2cn3cc(C4CC4)ccc3n2)ccn1 (racemic) [Example I-212, rac-(1S*,2S*)-2-(5-chloro-3-cyanothiophen-2-yl)-N-(4-(((6-cyclopropylimidazo[1,2-a]pyridin-2-yl)methyl)amino)pyridin-2-yl)cyclopropane-1-carboxamide]",1 to 10 nM
10,"Cc1ccnc([C@H]2C[C@@H]2C(=O)Nc2cc(OC(C)c3cn4cc(C5CC5)cc(N5CC(=O)NC5=O)c4n3)cnn2)n1 (stereo partly drawn) [Example 39, (1S,2S)—N-(5-(1-(6-cyclopropyl-8-(2,4-dioxoimidazolidin-1-yl)imidazo[1,2-a]pyridin-2-yl)ethoxy)pyridazin-3-yl)-2-(4-methylpyrimidin-2-yl)cyclopropane-1-carboxamide]",1 to 10 nM
11,"Cc1ccnc([C@H]2C[C@@H]2C(=O)Nc2cc(F)cc(OCc3cn4cc(C5CC5)cc(N5CC(=O)N(C)C5=O)c4n3)n2)n1 [Example 675, (1S,2S)—N-(6-((6-cyclopropyl-8-(3-methyl-2,4-dioxoimidazolidin-1-yl)imidazo[1,2-a]pyridin-2-yl)methoxy)-4-fluoropyridin-2-yl)-2-(4-methylpyrimidin-2-yl)cyclopropane-1-carboxamide]",< 1 nM

# More lines, now with the values ahead:
row,EC50,SMILES
1,1 to 10 nM,"N#Cc1cc(C2CC2)cn2cc(CNc3ccnc(NC(=O)[C@@H]4C[C@H]4c4cccc(Cl)c4)c3)nc12 (racemic) [Example 119, rac-(1S*,2S*)-2-(3-chlorophenyl)-N-(4-(((8-cyano-6-cyclopropylimidazo[1,2-a]pyridin-2-yl)methyl)amino)pyridin-2-yl)cyclopropane-1-carboxamide]"
2,1 to 10 nM,"Nc1cc(C2CC2)cn2cc(CNc3cc(NC(=O)[C@H]4C[C@@H]4c4cccc(Cl)c4)ncn3)nc12 [Example 308, (1S,2S)—N-(6-(((8-amino-6-cyclopropylimidazo[1,2-a]pyridin-2-yl)methyl)amino)pyrimidin-4-yl)-2-(3-chlorophenyl)cyclopropane-1-carboxamide]"
3,> 6000 nM,"Nc1c(Cl)cccc1[C@H]1C[C@@H]1C(=O)Nc1cc(NCc2cn3cc(C4CC4)ccc3n2)ncn1 (racemic) [Example 280, rac-(1S*,2S*)-2-(2-amino-3-chlorophenyl)-N-(6-(((6-cyclopropylimidazo[1,2-a]pyridin-2-yl)methyl)amino)pyrimidin-4-yl)cyclopropane-1-carboxamide]"
4,1 to 10 nM,"CN(C)C1CCN(c2cc(C3CC3)cn3cc(CNc4cc(NC(=O)[C@H]5C[C@@H]5c5cccc(Cl)c5)ncn4)nc23)C1 (single isomer, unassigned) [Example I-14]"
5,1000 to 6000 nM,"O=C(Nc1cc(NCc2nc3ccc(C4CC4)cn3c2Cl)ncn1)[C@H]1C[C@@H]1c1cccc(Cl)c1 (racemic) [Example 69, rac-(1S*,2S*)-N-(6-(((3-chloro-6-cyclopropylimidazo[1,2-α]pyridin-2-yl)methyl)amino)pyrimidin-4-yl)-2-(3-chlorophenyl)cyclopropane-1-carboxamide]"
6,1 to 10 nM,"CC1CCN(c2cc(C3CC3)cn3cc(CNc4cc(NC(=O)[C@H]5C[C@@H]5c5cccc(Cl)c5)ncn4)nc23)C1=O (relative stereo) [Example 67, rac-(1S*,2S*)-2-(3-chlorophenyl)-N-(6-(((6-cyclopropyl-8-(3-methyl-2-oxopyrrolidin-1-yl)imidazo[1,2-a]pyridin-2-yl)methyl)amino)pyrimidin-4-yl)cyclopropane-1-carboxamide]"
7,100 to 1000 nM,"O=C(Nc1cc(NCc2cn3cc(C4CC4)ccc3n2)ncn1)[C@H]1C[C@@H]1c1ccc(F)c(Cl)c1 (racemic) [Example 45, rac-(1S*,2S*)-2-(3-chloro-4-fluorophenyl)-N-(6-(((6-cyclopropylimidazo[1,2-a]pyridin-2-yl)methyl)amino)pyrimidin-4-yl)cyclopropane-1-carboxamide]"
8,> 6000 nM,"O=C(Nc1cc(N2C[C@H](O)C[C@@H]2c2cn3cc(C4CC4)ccc3n2)ncn1)[C@H]1C[C@@H]1c1cccc(Cl)c1 [Example I-250, (1S,2S)-2-(3-chlorophenyl)-N-(6-((2R,4R)-2-(6-cyclopropylimidazo[1,2-a]pyridin-2-yl)-4-hydroxypyrrolidin-1-yl)pyrimidin-4-yl)cyclopropane-1-carboxamide]"
9,100 to 1000 nM,"CSc1nc(NCc2cn3cc(C4CC4)ccc3n2)cc(NC(=O)[C@@H]2C[C@H]2c2cccc(Cl)c2)n1 (racemic) [Example 106, rac-(1S*,2S*)-2-(3-chlorophenyl)-N-(6-(((6-cyclopropylimidazo[1,2-a]pyridin-2-yl)methyl)amino)-2-(methylthio)pyrimidin-4-yl)cyclopropane-1-carboxamide]"
10,10 to 100 nM,"O=C(Nc1cc(NCc2cn3cc(C4CC4)ccc3n2)ncn1)[C@H]1C[C@@H]1c1cc(Cl)ccc1C(F)F (racemic) [Example 51, rac-(1S*,2S*)-2-(5-chloro-2-(difluoromethyl)phenyl)-N-(6-(((6-cyclopropylimidazo[1,2-a]pyridin-2-yl)methyl)amino)pyrimidin-4-yl)cyclopropane-1-carboxamide]"
11,100 to 1000 nM,"CN1C(=O)[C@]2(C[C@H]2C(=O)Nc2cc(NCc3cn4cc(C5CC5)ccc4n3)ncn2)c2cc(Cl)ccc21 (racemic) [Example 413, rac-(1R*,2S*)-5′-chloro-N-(6-(((6-cyclopropylimidazo[1,2-a]pyridin-2-yl)methyl)amino)pyrimidin-4-yl)-1′-methyl-2′-oxospiro[cyclopropane-1,3′-indoline]-2-carboxamide]"
12,10 to 100 nM,"COc1ncccc1-c1cc(C2CC2)cn2cc(CNc3cc(NC(=O)[C@H]4C[C@@H]4c4cccc(Cl)c4)ncn3)nc12 [Example I-150, (1S,2S)-2-(3-chlorophenyl)-N-(6-(((6-cyclopropyl-8-(2-methoxypyridin-3-yl)imidazo[1,2-a]pyridin-2-yl)methyl)amino)pyrimidin-4-yl)cyclopropane-1-carboxamide]"
13,1 to 10 nM,"COC(=O)c1cc(C2CC2)cn2cc(CNc3cc(NC(=O)[C@H]4C[C@@H]4c4cccc(Cl)c4)ncn3)nc12 [Example I-146, methyl 2-(((6-((1S,2S)-2-(3-chlorophenyl)cyclopropane-1-carboxamido)pyrimidin-4-yl)amino)methyl)-6-cyclopropylimidazo[1,2-a]pyridine-8-carboxylate]"

# Same assay, conditions: comparative compounds, 500 pM activated kallikrein format; read-out: Primary Dose Response Assay: Average EC50
row,EC50,SMILES
1,1 to 10 nM,O=C(Cc1ncn2ccc(Cl)cc12)Nc1cc(NCc2cn3cc(C4CC4)ccc3n2)ncn1
